For assay [1], the system named is panel of cancer cell lines (CCRF-CEM, SKOV-3, MDA-MB-231, PC-3, DU-145, iSLK). Put plainly: MTS cell viability assay, summary over the cancer cell line panel. The class given is cell-based. The following applies: Homo sapiens; range over CCRF-CEM, MDA-MB-231, PC3, DU-145; read-out: IC50 against all the cancer cell lines (range). On the procedure:
(§1) All the 14 hybrid compounds synthesized via Scheme 1, along with the intermediates and starting compounds, were tested in vitro for their cytotoxicity against a panel of 6 human cancer cell lines. This panel involved human leukemia carcinoma (CCRF-CEM), human ovarian adenocarcinoma (SKOV-3), human breast tumor (MDA-MB-231), human prostate cancer (PC-3), androgen-independent human prostate cancer (DU-145), and human renal carcinoma (iSLK) cell lines. The compounds were tested at a concentration of 25 μM for incubation periods of 24 and 72 h. Standard anticancer drug doxorubicin at a concentration of 5 μM and DMSO were used as controls in all the cell assays. The antiproliferative profile of benzopyran-4-one-isoxazole conjugates is shown in Figure 2 (cf. Supplementary Materials for the data obtained for intermediates and starting materials Figure S28.1–S28.6, page no. 71–76).
(§2) Cell viability assays were performed using the MTS protocol. The in vitro cytotoxicity of the conjugates was evaluated using six human cancer cell lines, one human normal kidney cell line, and one mammalian normal kidney cell line, which included human leukemia carcinoma cell lines (CCRF-CEM), human ovarian adenocarcinoma cell lines (SKOV-3), human breast tumor cell lines (MDA-MB-231), human prostate cancer cell lines (PC-3), androgen-independent human prostate cancer cell lines (DU-145), human renal carcinoma (iSLK), human embryonic kidney cell lines (HEK-293), and normal mammalian kidney cell line (LLCPK) to determine the toxicity of the synthesized conjugates. CCRF-CEM cells were seeded at 50,000 cells in 0.1 mL per well in 96-well plates, and in the case of SKOV-3, MDA-MB-231, PC-3, DU-145, HEK-293, and LLCPK cell lines, the cells were seeded at 5000 cells in 0.1 mL per well in 96-well plates. The CCRF-CEM cells were seeded in RPMI-1640 media containing 2mM L-glutamine, 1.5 g/L sodium bicarbonate, supplemented with fetal bovine serum (FBS) 10% media, SKOV-3, MDA-MB-231, and LLCPK cells were seeded in MEME media with Earle’s salts and sodium bicarbonate, without L-glutamine, supplemented with fetal bovine serum (FBS) 10%, PC-3 cells were seeded in DMEM:F-12 containing 1:1 mixture with L-glutamine with HEPES, supplemented with fetal bovine serum (FBS) 10%, and DU-145 and HEK-293 cells were seeded in DMEM containing 4500 mg/L glucose, L-glutamine, and sodium bicarbonate, without sodium pyruvate, supplemented with FBS (10%), 24 h prior to the experiment. The compounds at a final concentration of 25 µM (higher concentration stock solution prepared in DMSO) were added to each well in triplicate and incubated for 24 and 72 h at 37 °C in a humidified atmosphere (95% air and 5% CO2). The cell viability was then determined by measuring the absorbance of the formazan product at 490 nm using a microplate reader using a SpectraMax M2 microplate spectrophotometer, Molecular Devices, San Jose, CA, USA. The percentage of cell survival was calculated as [(OD value of cells treated with the test mixture of compounds) − (OD value of culture medium)]/[(OD value of control cells) − (OD value of culture medium)] × 100%. IC50 values of compounds were calculated using non-linear regression analysis in GraphPad Prism (Boston, MA, USA).

For assay [2], the system named is human breast tumor (MDA-MB-231) cell lines. As to the kind of experiment: MTS cell viability assay. The class given is cell-based. The following applies: for IC50: average of three independent tests in triplicate; for inhibition at 25 µM: conjugates at 25 μM. How it is done:
as §1, §2

Assay [3] relates to human ovarian adenocarcinoma (SKOV-3) cell lines. Put plainly: MTS cell viability assay. The class given is cell-based. The following applies: 72 h, read-out: Inhibition of Cancer Cell Lines SKOV-3; for inhibition at 25 µM: SK-OV-3, conjugates at 25 μM. How it is done:
as §1, §2

Assay [4] relates to human prostate cancer (PC-3) cell lines. Put plainly: MTS cell viability assay. The format is cell-based. The following applies: for IC50: PC3, average of three independent tests in triplicate; for inhibition at 25 µM: conjugates at 25 μM. How it is done: as §1, §2
Assay [5] has as its system androgen-independent human prostate cancer (DU-145) cell lines. As to the kind of experiment: MTS cell viability assay. The format is cell-based. The following applies: for IC50: average of three independent tests in triplicate; for inhibition at 25 µM: conjugates at 25 μM. How it is done: as §1, §2
The test system of assay [6] is human leukemia carcinoma (CCRF-CEM) cell lines. As to the kind of experiment: MTS cell viability assay. The class given is cell-based. The following applies: for inhibition at 25 µM: conjugates at 25 μM; for IC50: average of three independent tests in triplicate. On the procedure: as §1, §2
The test system of assay [7] is human renal carcinoma (iSLK) cell lines. As to the kind of experiment: MTS cell viability assay. The format is cell-based. The following applies: 72 h; for inhibition at 25 µM: Homo sapiens, conjugates at 25 μM, read-out: Inhibition of Cancer Cell Lines iSLK. How it is done:
as §1, §2

Assay [8] relates to human embryonic kidney (HEK-293) cell lines. Put plainly: MTS cell viability assay, non-cancerous cells. The format is cell-based. The following applies: for IC50: average of three independent tests in triplicate; for inhibition at 25 µM: HEK293, conjugates at 25 μM, 72 h.
Description: (§3) The compounds were further screened for their in vitro cytotoxicity against non-cancerous normal cell lines, viz., human embryonic kidney (HEK-293) and normal pig kidney (LLCPK) cell lines. These cell lines were selected to determine whether the compounds had selectivity against cancerous cells in contrast to non-cancerous cells. The data obtained is shown in Figure 3a–b (cf. Supplementary Materials for the data obtained for intermediates and starting materials Figure S28.7–S28.8, page no. 77–78).
as §2

Assay [9] relates to MDA-MB-231 cells. As to the kind of experiment: Annexin V-FITC/PI apoptosis assay by flow cytometry. The class given is cell-based, human. The following applies: MDA-MB-231, 5 μM, 72 h. How it is done:
In accordance with the MTS assay, compound 5a had promising antiproliferative action. Therefore, we attempted to study the mechanism triggering cell death. […] MDA-MB-231 cells were treated with 5 μM of compound 5a and Dox (5 μM) as a positive control and incubated for 72 h, then double-stained carefully by membrane-linked protein Annexin-V fluorescein isothiocyanate (FITC) and propidium iodide (PI) for flow cytometry analysis. Normally, in the early stages of apoptosis, phosphatidylserine flips from the inner cell membrane to the surface of the cell membrane. […] PI is a nucleic acid dye that can only cross the membrane of advanced apoptosis and necrotic cells and redden the nucleus. Consequently, when the treated cells are double stained by the two fluorescent dyes, early and late apoptosis and necrotic cells can be clearly distinguished. […] These findings illustrated that compound 5a mainly leads to the early apoptosis of MDA-MB-231 cells.
The assay was detected using a commercially available kit (FITC Annexin V Apoptosis Detection Kit II, BD Biosciences, San Jose, CA, USA) per the manufacturer’s instructions. Briefly, MDA-MB-231 cells were seeded in 6-well plates at a concentration of 1 × 10^6 cells/well for 24 h; after that, cells were treated with 5a (5 µM) for 72 h. Dox (5 µM) was used as a positive control. After the treatment period, cells were washed with cold phosphate-buffered saline (PBS) twice. The cells were collected after trypsin treatment and centrifugated to get a pellet, and a binding buffer (1X) was used to resuspend the cells. Annexin V (5 μL) and propidium iodide (PI) (5 μL) were mixed with 100 μL of the suspended cells (1 × 10^6 cells/mL), followed by 15 min incubation at room temperature in the dark. The mixture was diluted by adding 400 μL of 1× binding buffer, and the cells were analyzed using flow cytometry, FACS Verse (BD Biosciences, USA). The experiment was repeated three times independently.

The subject of assay [10] is human embryonic kidney (HEK-293) cell lines. As to the kind of experiment: MTS cell viability assay, non-cancerous cells. The following applies: HEK293, Dox at 5 μM, 72 h. The class given is cell-based.
The subject of assay [11] is normal pig kidney (LLCPK) cell lines. As to the kind of experiment: MTS cell viability assay, non-cancerous cells. The format is cell-based. The following applies: Sus scrofa, 72 h.
Description: as §3, §2

The target of assay [12] is phosphatidylinositol 3-kinase (PI3K). On the set-up: method as in PMID 8106507. The following applies: cellular; cited from earlier work.
The mark [13] stands for this setting: 72 h, read-out: Inhibition of Cancer Cell Lines MDA-MB-231.
The mark [14] stands for this setting: Homo sapiens, CCRF-CEM, 72 h, read-out: Inhibition of Cancer Cell Lines CCRF-CEM.
Where [15] appears, read: Homo sapiens, HEK293, normal HEK-293 cells.

Regarding `COc1ccc2occ(COC(=O)c3c(C)noc3C)c(=O)c2c1` [Compound 5c, (6-Methoxy-4-oxo-4H-1-benzopyran-3-yl)methyl 3,5-dimethylisoxazole-4-carboxylate], the 50% inhibitory concentration (IC50) in assay [1] is 3.3 to 12.9 µM; in assay [2], 11 µM; in assay [4] it was 12.9 µM; in assay [5], 12.2 µM; in assay [6] (Homo sapiens, CCRF-CEM), 3.31 µM; in assay [8] (setting [15]), 222 µM. Besides, the inhibition at 25 µM was 70% in assay [2] (setting [13]); 45% in assay [3]; 74% in [4] (72 h); 81% in [5] (72 h); 83% in assay [6] (setting [14]); 31% in assay [7]. Further, the inhibition at 25 µM in assay [8] (Homo sapiens) was 38%. Moreover, the “fold potency for CCRF-CEM cell lines” value in assay [6] (compared to 5a, 5b, and 5d, from IC50) was 3–12 fold.

As for `COc1cccc2occ(COC(=O)c3c(C)noc3C)c(=O)c12` [Compound 5b, (5-Methoxy-4-oxo-4H-1-benzopyran-3-yl)methyl 3,5-dimethylisoxazole-4-carboxylate], the half-maximal inhibitory concentration (IC50) is 14.8 to 51.1 µM in assay [1]; 22.2 µM in assay [2]; 14.8 µM in assay [4]; 51.1 µM in [5]; 36.5 µM in assay [6] (Homo sapiens, CCRF-CEM); 102 µM in [8] (setting [15]). In [8] (normal HEK-293 cells), this compound returned an IC50 of 192 µM. For the same compound, the inhibition at 25 µM amounted to 60% in assay [2] (setting [13]); 42% in [3]; 75% in assay [4] (72 h); 50% in assay [5] (72 h); 83% in assay [6] (setting [14]); 23% in assay [7]. Moreover, in assay [8] (Homo sapiens), the inhibition at 25 µM came out at 34%.

Turning to `COc1cccc2c1C(=O)c1c(O)c3c(c(O)c1C2=O)C[C@@](O)(C(=O)CO)C[C@@H]3O[C@H]1C[C@H](N)[C@H](O)[C@H](C)O1` [doxorubicin, reference compound], the “Early Apoptosis” value in assay [9] came out at 61.15%. Besides, the “Late Apoptosis” value in assay [9] was 28.29%. Also, the inhibition at 5 µM in [10] was 43%; in assay [2] (Dox at 5 μM, 72 h, read-out: Inhibition of Cancer Cell Lines MDA-MB-231), 73%; in [3] (SK-OV-3, Dox at 5 μM), 62%; in [4] (Dox at 5 μM, 72 h) it was 54%; in [5] (Dox at 5 μM, 72 h) it was 57%; in assay [6] (Homo sapiens, CCRF-CEM, Dox at 5 μM, 72 h, read-out: Inhibition of Cancer Cell Lines CCRF-CEM), 82%. Further, in assay [11] (Dox at 5 μM), testing at 5 µM gave an inhibition of 74%. The “Inhibition of Cancer Cell Lines iSLK” value in [7] (Dox at 5 μM) is “NIL”.

In the case of `O=c1cc(N2CCOCC2)oc2c(-c3ccccc3)cccc12` [LY294002, 2-(4-Morpholinyl)-8-Phenyl-4H-1-Benzopyran-4-One], the IC50 in [12] is around 1.4 µM.

Take `COc1ccc2c(=O)c(COC(=O)c3c(C)noc3C)coc2c1` [Compound 5d, (7-Methoxy-4-oxo-4H-1-benzopyran-3-yl)methyl 3,5-dimethylisoxazole-4-carboxylate]: the half-inhibitory concentration (IC50) in assay [1] was 5.2 to 16.1 µM; in assay [2], 5.26 µM; in assay [4], 12.7 µM; in [5] it was 14.6 µM; in [6] (Homo sapiens, CCRF-CEM), 16.2 µM; in [8] (setting [15]) it was 192 µM. In [8] (normal HEK-293 cells), this compound registered a half-inhibitory concentration (IC50) of 102 µM. For the same compound, the inhibition at 25 µM was determined as 76% in [2] (setting [13]); 48% in assay [3]; 75% in assay [4] (72 h); 79% in [5] (72 h); 82% in [6] (setting [14]); 42% in assay [7]. Also, the inhibition at 25 µM in [11] (conjugates at 25 μM) turned out to be 18%; in assay [8] (Homo sapiens) it was 40%.

The record behind these values is paper PMC10224329, “Design, Synthesis, and Antiproliferative Activity of Benzopyran-4-One-Isoxazole Hybrid Compounds” (Molecules, 2023).
